Laboratory results as given in ChEMBL document CHEMBL1147948, “Preparation of novel anthranilic acids as antibacterial agents: extensive evaluation of structural and physical properties on antibacterial activity and human serum albumin affinity” (Bioorg Med Chem Lett, 2007).
Values after ≈ are worked out from the molar mass of the structure shown.

Experiments:
Staphylococcus aureus [1] = experiment: Ratio of MIC of Staphylococcus aureus UC 9218 in presence of 10% serum to MIC of Staphylococcus aureus UC 9218 in absence of serum; assay type: functional
Staphylococcus aureus [2] = experiment: Antibacterial activity against Staphylococcus aureus UC 9218 in presence of 10% human serum; assay type: functional
Albumin = Albumin (Homo sapiens, UniProt P02768); experiment: Binding affinity to human serum albumin
Albumin, sequence (P02768 whole entry): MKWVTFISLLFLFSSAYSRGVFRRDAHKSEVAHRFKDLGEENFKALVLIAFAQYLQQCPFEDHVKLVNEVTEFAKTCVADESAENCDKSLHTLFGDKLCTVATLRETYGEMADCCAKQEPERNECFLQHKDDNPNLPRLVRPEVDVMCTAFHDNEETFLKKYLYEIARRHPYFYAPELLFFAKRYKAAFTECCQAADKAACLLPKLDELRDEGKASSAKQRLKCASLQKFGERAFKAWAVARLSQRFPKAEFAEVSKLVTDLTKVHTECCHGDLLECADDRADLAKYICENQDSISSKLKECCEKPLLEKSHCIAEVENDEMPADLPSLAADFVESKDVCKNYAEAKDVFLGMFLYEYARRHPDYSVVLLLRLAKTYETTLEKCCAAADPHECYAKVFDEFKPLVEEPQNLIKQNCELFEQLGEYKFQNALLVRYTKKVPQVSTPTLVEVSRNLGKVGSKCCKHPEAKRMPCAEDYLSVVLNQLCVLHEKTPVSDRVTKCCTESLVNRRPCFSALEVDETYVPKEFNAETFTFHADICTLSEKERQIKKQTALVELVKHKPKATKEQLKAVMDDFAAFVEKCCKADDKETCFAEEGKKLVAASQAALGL

Staphylococcus aureus [3] = experiment: Antibacterial activity against Staphylococcus aureus UC 9218; assay type: functional
Staphylococcus aureus [4] = experiment: Antibacterial activity against Staphylococcus aureus UC 9218 in presence of 5% human serum; assay type: functional

SMILES	Ratio (Staphylococcus aureus [1])	MIC (Staphylococcus aureus [2]) [µg/mL]	Kd (Albumin) [nM]	MIC (Staphylococcus aureus [3]) [µg/mL]	MIC (Staphylococcus aureus [4]) [µg/mL]
COCCOCCCSc1ccc(C(=O)Nc2ccc(C#N)cc2C(=O)O)cn1	4	4	700	1 (≈ 2.41 µM)	–
N#Cc1ccc(NC(=O)c2ccc(SC3CCCCC3)nc2)c(C(=O)O)c1	64	32	–	0.5 (≈ 1.31 µM)	–
O=C(Nc1ccc(Br)cc1C(=O)O)c1ccc(SC2CCCCC2)nc1	64	64	–	1 (≈ 2.3 µM)	–
CCCCCCSc1ccc(C(=O)Nc2ccc(Cl)cc2C(=O)O)cn1	512	64	–	–	–
CCCCCCCCCSc1ccc(C(=O)Nc2ccc(C#N)cc2C(=O)O)cn1	> 128	> 128	–	1 (≈ 2.35 µM)	–
CC(C)Sc1ccc(C(=O)Nc2ccc(Br)cc2C(=O)O)cn1	32	32	–	1 (≈ 2.53 µM)	–
N#Cc1ccc(NC(=O)c2ccc(SC3CCOCC3)nc2)c(C(=O)O)c1	32	4	–	–	–
CCCC(C)Sc1ccc(C(=O)Nc2ccc(C#N)cc2C(=O)O)cn1 (stereo not given)	128	16	–	–	–
CCC(CC)Sc1ccc(C(=O)Nc2ccc(C#N)cc2C(=O)O)cn1	32	8	–	–	–
CCCCSc1ccc(C(=O)Nc2ccc(C#N)cc2C(=O)O)cn1	64	16	–	–	–
CCCCCCSc1ccc(C(=O)Nc2ccc(C#N)cc2C(=O)O)cn1	64	8	–	–	–
CCCCCCSc1ccc(C(=O)Nc2ccc(Br)cc2C(=O)O)cn1	512	64	–	–	–
CC(C)(C)c1ccc(-c2ccc(NC(=O)c3cccc(S(=O)(=O)N4CCc5cc(Cl)ccc54)c3)c(C(=O)O)c2)cc1	–	> 128	–	16 (≈ 27.2 µM)	> 128
CCSc1ccc(C(=O)Nc2ccc(C#N)cc2C(=O)O)cn1	16	8	–	0.5 (≈ 1.53 µM)	–
CCCSc1ccc(C(=O)Nc2ccc(C#N)cc2C(=O)O)cn1	64	32	–	0.5 (≈ 1.46 µM)	–
CCCCC(C)Sc1ccc(C(=O)Nc2ccc(C#N)cc2C(=O)O)cn1 (stereo not given)	128	16	–	–	–
CC(C)(C)c1ccc(-c2cncc(C(=O)Nc3ccc(C#N)cc3C(=O)O)c2)cc1	–	> 128	–	–	> 128
CC(C)Sc1ccc(C(=O)Nc2ccc(C#N)cc2C(=O)O)cn1	16	16	–	1 (≈ 2.93 µM)	–
CCCCCSc1ccc(C(=O)Nc2ccc(C#N)cc2C(=O)O)cn1	32	4	–	–	–
CC(C)CSc1ccc(C(=O)Nc2ccc(C#N)cc2C(=O)O)cn1	16	8	–	0.5 (≈ 1.41 µM)	–
N#Cc1ccc(NC(=O)c2ccc(SC3CCCC3)nc2)c(C(=O)O)c1	32	16	–	0.5 (≈ 1.36 µM)	–
O=C(Nc1ccc(Br)cc1C(=O)O)c1ccc(SC2CCOCC2)nc1	32	32	–	1 (≈ 2.29 µM)	–
CSc1ccc(C(=O)Nc2ccc(C#N)cc2C(=O)O)cn1	8	> 128	–	32 (≈ 102 µM)	–
